This is an account of results in US20190076456A1, “COMPOSITIONS AND METHODS FOR LIVER DISEASES” (priority 2017, published 2019).

For data set [1] the following is noted: cited from earlier work.
A further data set relates to alcohol hangover. Nature of the data set: Nasal spray administration to a human subject with alcohol hangover. The class given is in vivo. The conditions noted are these: 50 mg NAD+ per administration, three times in a day. As for the experimental part:
A subject, who is […] and suffers from alcohol hangover was administered by nasal spray a composition of invention (with a dosage of 50 mg NAD+ per administration) three times in a day.

Where two headings read alike, the source gives them in different places.

For the compound `NC(=O)c1ccc[n+]([C@@H]2O[C@H](COP(=O)([O-])OP(=O)(O)OC[C@H]3O[C@@H](n4cnc5c(N)ncnc54)[C@H](O)[C@@H]3O)[C@@H](O)[C@H]2O)c1` [NAD+, nicotinamide adenine dinucleotide], the stability of solution entry is “stable for about a week” in data set [1] (4° C. and neutral pH); “decompose rapidly” in data set [1] (in acids or alkalis). Also, the “symptoms of alcohol hangover” value in the data set with alcohol hangover is on record as “Significant improvement”.
